# Measured values: patent publication US20060025463A1, “Enoximone sulfoxide enantiomers and their use in the treatment of PDE-III mediated diseases” (priority 2004, published 2006)
# Like-named read-outs stand apart in the source and are kept apart here.
# Columns and labels:
# [1] = test system: trabeculae from the right ventricular free wall of explanted human hearts; assay: Tension study: peak contractile force of isolated human right ventricular trabeculae in a muscle bath; details: 37° C., 1.0 Hz field stimulation, increasing concentrations
# Procedure: Explanted human hearts were obtained from transplant recipients (n=7) and from nonfailing donor hearts (n=1). After excision, hearts were placed immediately into ice cold Tyrode's solution and aerated with 95% O2 and 5% CO2. Trabeculae between 1-3 mm in width and 7-10 mm in length were excised from the right ventricular free wall. Subsequently trabeculae were mounted in a multi-chamber muscle bath in oxygenated Tyrode's solution at 37° C. The trabeculae were placed under 1 gram of resting tension and a field stimulation of 1.0 Hz. […] Peak contractile forces were recorded at 10 minute intervals for a total of 1½ hours. Following experimentation, trabeculae were frozen in liquid N2.
# [2] = target: T1, PDE-III isolated from human platelets (Homo sapiens, UniProt Q14432); assay: PDE-III inhibition assay, [3H]cAMP substrate, [3H]Adenosine quantified; type: biochemical; details: triplicate at three concentrations over log scale, semi-quantitative
# T1 construct: PDE-III isolated from human platelets; from tissue; host or cells: human platelets
# Procedure: Enoximone Sulfoxide enantiomer was tested for its ability to inhibit the action of PDE-III isolated from human platelets. The substrate was [^3H]cAMP+cAMP, which is converted by PDE-III to [^3H]Adenosine and then [^3H]Adenosine can be quantified.
# [3] = cited from earlier work
# [4] = oral, cited from earlier work
# [5] = test system: men who suffer from ED of psychogenic or organic etiology; details: clinical studies; cited from earlier work
# PDE-III = details: cited from earlier work
# T1 sequence (Q14432 whole entry): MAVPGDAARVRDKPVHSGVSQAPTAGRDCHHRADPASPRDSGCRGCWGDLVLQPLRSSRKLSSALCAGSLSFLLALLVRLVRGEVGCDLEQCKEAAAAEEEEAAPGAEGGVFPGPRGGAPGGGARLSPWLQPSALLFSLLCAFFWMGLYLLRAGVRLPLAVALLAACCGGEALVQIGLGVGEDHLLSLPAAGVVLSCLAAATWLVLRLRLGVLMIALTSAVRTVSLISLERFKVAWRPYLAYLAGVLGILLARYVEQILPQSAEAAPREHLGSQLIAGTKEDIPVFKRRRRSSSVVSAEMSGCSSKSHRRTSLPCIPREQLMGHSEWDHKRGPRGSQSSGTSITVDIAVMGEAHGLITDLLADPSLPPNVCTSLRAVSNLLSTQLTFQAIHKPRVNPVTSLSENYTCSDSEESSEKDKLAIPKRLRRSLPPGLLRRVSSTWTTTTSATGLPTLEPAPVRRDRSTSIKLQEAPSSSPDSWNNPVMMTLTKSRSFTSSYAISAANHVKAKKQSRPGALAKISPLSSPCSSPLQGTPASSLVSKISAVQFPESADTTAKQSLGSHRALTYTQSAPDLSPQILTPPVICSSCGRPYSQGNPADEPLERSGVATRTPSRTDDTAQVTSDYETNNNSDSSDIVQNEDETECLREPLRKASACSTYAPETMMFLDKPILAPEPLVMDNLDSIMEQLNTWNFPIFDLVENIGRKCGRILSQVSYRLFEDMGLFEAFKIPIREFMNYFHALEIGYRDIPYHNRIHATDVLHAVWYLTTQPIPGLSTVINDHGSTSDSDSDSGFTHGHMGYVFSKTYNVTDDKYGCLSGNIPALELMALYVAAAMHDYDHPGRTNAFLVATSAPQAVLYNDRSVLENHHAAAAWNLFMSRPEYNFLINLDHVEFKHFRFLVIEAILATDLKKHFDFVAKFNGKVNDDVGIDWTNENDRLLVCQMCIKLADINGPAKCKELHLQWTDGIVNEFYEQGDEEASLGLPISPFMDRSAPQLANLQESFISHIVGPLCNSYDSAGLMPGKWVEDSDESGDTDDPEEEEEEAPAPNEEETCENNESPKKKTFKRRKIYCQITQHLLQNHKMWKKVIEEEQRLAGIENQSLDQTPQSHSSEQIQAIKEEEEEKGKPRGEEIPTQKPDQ
smiles,measurement,setting,value
"Cc1[nH]c(=O)[nH]c1C(=O)c1ccc([S+](C)[O-])cc1.O (single isomer, unassigned) [(R)-(+)-enantiomer, 1,3-Dihydro-4-methyl-5-[(4-methylsulfinyl)-benzoyl]-2H-imidazol-2-one hydrate]","peak contractile force (net, T=0 value subtracted)",[1],175 mg of tension
"Cc1[nH]c(=O)[nH]c1C(=O)c1ccc([S@+](C)[O-])cc1 [(S)-(−)-enantiomer, 1,3-Dihydro-4-methyl-5-[(4-methylsulfinyl)-benzoyl]-2H-imidazol-2-one hydrate]","peak contractile force (net, T=0 value subtracted)",[1],550 mg of tension
same,IC50,[2],147 µM
"CSc1ccc(C(=O)c2[nH]c(=O)[nH]c2C)cc1 [Enoximone, 1,3-Dihydro-4-methyl-5-[4-(methylthio)benzoyl]-2H-imidazol-2-one]","peak contractile force (net, T=0 value subtracted)",[1],575 mg of tension
same,mean clearance,[3]; patients with cardiac failure,about 10 ml/min/kg
same,mean half-life,[3]; patients with cardiac failure,6 h
same,Bioavailability,[3]; single oral dose of 3 mg/kg,about 55%
same,average steady-state plasma concentration,[4]; 50 mg every 8 hours,115 ± 40 ng/mL
same,average steady-state plasma concentration,[4]; 100 mg every 8 hours,190 ± 78 ng/mL
CC(C)NCC(O)c1ccc(O)c(O)c1 (stereo not drawn) [Isoproterenol],"peak contractile force (net, T=0 value subtracted)",[1],> 1000 mg of tension
"CCCc1nn(C)c2c(=O)[nH]c(-c3cc(S(=O)(=O)N4CCN(C)CC4)ccc3OCC)nc12 [sildenafil, 5-[2-ethoxy-5-(4-methylpiperazin-1-ylsulphonyl)phenyl]-1-methyl-3-n-propyl-6,7-dihydro-1H-pyrazolo[4,3-d]pyrimidin-7-one]",men with improved sexual function,[5],about 70%
same,inhibition of PDE-III,PDE-III,negligible inhibition
